The values below are quoted from earlier work in patent US20260078132A1, “SOLID FORMS OF AN INHIBITOR OF HIF AND METHODS OF USING SAME” (ONCOSPHERIX INC., priority 2022, published 2026).

SMILES strings stand for the structures.

Data set [1] deals with T1, p300 (Homo sapiens, UniProt Q09472).
The target of data set [2] is T1, p300. The source holds these as a separate data set.

T1 sequence (Q09472 whole entry, species assumed): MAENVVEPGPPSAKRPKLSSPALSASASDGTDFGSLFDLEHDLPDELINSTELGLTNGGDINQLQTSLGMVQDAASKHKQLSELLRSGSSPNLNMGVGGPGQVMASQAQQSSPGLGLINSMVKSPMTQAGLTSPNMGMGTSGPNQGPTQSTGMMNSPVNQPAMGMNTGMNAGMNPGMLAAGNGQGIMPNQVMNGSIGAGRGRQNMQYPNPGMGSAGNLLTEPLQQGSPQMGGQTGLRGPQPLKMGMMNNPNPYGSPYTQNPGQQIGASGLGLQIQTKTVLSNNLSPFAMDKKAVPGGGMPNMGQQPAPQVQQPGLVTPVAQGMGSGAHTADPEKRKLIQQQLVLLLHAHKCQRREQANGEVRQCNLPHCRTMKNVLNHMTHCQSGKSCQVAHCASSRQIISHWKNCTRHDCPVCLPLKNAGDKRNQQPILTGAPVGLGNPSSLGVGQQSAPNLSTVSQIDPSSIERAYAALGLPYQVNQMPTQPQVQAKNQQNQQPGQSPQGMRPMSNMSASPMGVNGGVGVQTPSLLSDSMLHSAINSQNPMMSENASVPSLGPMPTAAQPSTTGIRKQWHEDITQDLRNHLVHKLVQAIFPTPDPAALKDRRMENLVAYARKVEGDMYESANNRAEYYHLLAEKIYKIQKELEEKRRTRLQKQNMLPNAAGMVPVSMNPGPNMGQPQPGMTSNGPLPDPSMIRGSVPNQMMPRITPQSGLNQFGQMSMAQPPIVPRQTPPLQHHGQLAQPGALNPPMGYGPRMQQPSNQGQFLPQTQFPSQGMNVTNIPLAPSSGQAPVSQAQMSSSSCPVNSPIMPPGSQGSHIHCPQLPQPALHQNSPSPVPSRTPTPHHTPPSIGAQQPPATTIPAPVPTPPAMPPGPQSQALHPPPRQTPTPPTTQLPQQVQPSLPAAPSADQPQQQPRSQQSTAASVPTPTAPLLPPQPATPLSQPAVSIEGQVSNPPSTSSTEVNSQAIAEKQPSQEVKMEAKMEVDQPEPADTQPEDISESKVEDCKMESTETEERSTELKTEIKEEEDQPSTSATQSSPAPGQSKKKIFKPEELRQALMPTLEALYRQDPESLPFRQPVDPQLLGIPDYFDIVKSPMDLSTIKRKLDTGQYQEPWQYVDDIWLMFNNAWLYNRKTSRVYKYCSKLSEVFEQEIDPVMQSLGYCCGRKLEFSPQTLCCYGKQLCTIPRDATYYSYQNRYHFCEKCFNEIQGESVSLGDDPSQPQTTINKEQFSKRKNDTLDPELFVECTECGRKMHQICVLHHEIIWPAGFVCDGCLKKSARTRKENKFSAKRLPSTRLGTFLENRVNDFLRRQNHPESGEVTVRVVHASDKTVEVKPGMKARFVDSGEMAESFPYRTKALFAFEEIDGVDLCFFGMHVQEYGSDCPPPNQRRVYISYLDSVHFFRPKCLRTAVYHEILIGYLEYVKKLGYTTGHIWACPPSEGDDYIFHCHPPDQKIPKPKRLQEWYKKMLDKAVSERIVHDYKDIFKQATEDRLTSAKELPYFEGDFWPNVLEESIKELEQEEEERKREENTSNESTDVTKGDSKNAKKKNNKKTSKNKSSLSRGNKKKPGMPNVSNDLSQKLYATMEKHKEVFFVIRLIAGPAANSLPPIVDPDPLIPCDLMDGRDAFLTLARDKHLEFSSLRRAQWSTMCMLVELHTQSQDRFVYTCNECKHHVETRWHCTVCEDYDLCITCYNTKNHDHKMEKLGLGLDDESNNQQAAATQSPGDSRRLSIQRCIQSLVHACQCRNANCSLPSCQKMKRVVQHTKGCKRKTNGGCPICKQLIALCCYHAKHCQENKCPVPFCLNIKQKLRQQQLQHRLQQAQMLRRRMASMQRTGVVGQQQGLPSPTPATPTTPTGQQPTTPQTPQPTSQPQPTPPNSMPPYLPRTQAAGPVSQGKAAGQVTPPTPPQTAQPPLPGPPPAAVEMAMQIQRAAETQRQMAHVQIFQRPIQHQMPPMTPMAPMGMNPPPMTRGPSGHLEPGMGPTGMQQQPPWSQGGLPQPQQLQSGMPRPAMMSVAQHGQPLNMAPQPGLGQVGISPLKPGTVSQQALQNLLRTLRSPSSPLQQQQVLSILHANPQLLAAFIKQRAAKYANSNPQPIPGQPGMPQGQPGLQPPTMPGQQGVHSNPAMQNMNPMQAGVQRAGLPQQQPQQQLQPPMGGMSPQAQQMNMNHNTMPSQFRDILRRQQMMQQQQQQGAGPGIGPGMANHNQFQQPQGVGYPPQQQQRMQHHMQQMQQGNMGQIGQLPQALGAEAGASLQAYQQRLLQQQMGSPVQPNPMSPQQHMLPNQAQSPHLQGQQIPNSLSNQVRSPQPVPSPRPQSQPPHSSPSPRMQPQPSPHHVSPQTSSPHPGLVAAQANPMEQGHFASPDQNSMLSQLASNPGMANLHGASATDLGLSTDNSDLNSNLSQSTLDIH

For `COc1ccc(S(=O)(=O)N(Cc2ccc3c(n2)C=CC(C)(C)O3)C2CCC2)cc1OC` [Compound 9, N-Cyclobutyl-N-((2,2-dimethyl-2H-pyrano[3,2-b]pyridin-6-yl)methyl)-3,4-dimethoxybenzenesulfonamide], the “pull-down of p300” value in data set [1] is “pull-down of p300 by Compound 9”. In data set [2], the “binding to p300” value is “binding of Compound 9 to p300”.
